Where “and” joins values, the source holds several entries; their conditions need not be identical. Equal entries are not always repeated.
How the values were obtained:
AT1R = test: Confocal microscopy of YFP-tagged AT1R internalization; assay type: cell-based, human; details: 50 μM; AngII
Procedure: One day before transfection, cells were seeded in 35-mm glass-bottom dishes (MatTek Corporation) at a density of 1 × 10^5 cells per dish. For the recordings of receptor internalization, HEK293 SL cells were transfected with 2 μg of AT1R-YFP. For the recordings of β-arrestin-2 recruitment to the receptor, HEK293SL cells were transfected with 50 ng of β-arrestin2-YFP and 250 ng of Flag-AT1R or HA-B2R. Forty-eight hours post-transfection, cells were serum starved, preincubated with DMSO (0.1% final concentration) or Rasarfin (50 μM) for 30 min at 37 °C. AT1R-expressing cells were stimulated with angiotensinII (AngII; 100 nM) and B2R-expressing cells were stimulated with bradykinin (BK; 1 μM) for 30 min (receptor-YFP) or 15 min (β-arrestin2-YFP). Cells were imaged with Zeiss LSM-510 and/or LSM-710 laser scanning confocal microscope. To detect YFP, […] and BP 505–550 nm emission filter. Images (2048 × 2048) were collected using a 63x oil immersion lens.

ARF1 = target: T1, ARF1 (Homo sapiens, UniProt P84077); test: GST-GGA3-PBD pull-down of AT1R-mediated HA-ARF1 activation; assay type: cell-based; details: for ARF1-GTP/ARF1: GST-GGA3-PBD, listed as Comp 21
T1 construct: expressed in transfected cells; host or cells: HEK293SL
Procedure: Activation of ARF1, ARF6, Ras, and Rho were assessed by using GST pull-down assays. HEK293SL cells were transiently transfected with 3 µg AT1R-flag only (Ras and Rho) or along with 500 ng HA-ARF6 (ARF6) or HA-ARF1 (ARF1). Forty-eight hours later, the HEK293 or MDA-MB-231 cells were serum-starved for 4 h with DMEM containing 20 mM HEPES then pretreated with DMSO or Rasarfin (50 µM) for 30 min. Cells were then stimulated with 1 µM AngII or 100 ng/ml EGF for 0 and 2 min. Cells were then washed once with ice-cold PBS and lysed for 30 min at 4 °C in 300 µl of lysis buffer (pH 7.5, 50 mM Tris-HCl, 140 mM NaCl, 5 mM MgCl2, 10% glycerol (v/v), 1% Nonidet P-40 (v/v), 1 mM dithiothreitol) supplemented with protease inhibitors (1 mM phenylmethyl-sulfonyl fluoride (PMSF), 10 µg/ml leupeptin, 5 µg/ml aprotinin, 1 µg/ml pepstatin A) and phosphatase inhibitors (20 mM NaF, 0.025 mM pervanadate). The samples were cleared by centrifugation and 30 µl (cell lysates) was kept for assessing total protein contents. The remaining was transferred to fresh tubes with 20 µg of either GST, GST-GGA3-PBD, GST-Raf1-RBD or GST-Rhotekin-RBD coupled to glutathione resin and rotated for 1–2 h at 4 °C. Beads were washed twice with lysis buffer and proteins were eluted in 25 μl 2x laemmli buffer by heating at 65 °C for 15 min. Proteins were resolved on 14% SDS-PAGE, transferred to nitrocellulose membranes, and immunoblotted for HA, Ras, RhoA, H-Ras, or ARF6. ImageLab 5.2 software was used to quantify the digital blots as fold of the amount of pulled down protein over total protein. Uncropped coomassie gels and immunoblots are provided in the Source Data file.

[1] = target: T2, 384 kinases from the human genome (Homo sapiens, UniProt O15146); test: KINOMEscan kinase binding assay; details: kinase MUSK (Entrez MUSK)
T2 construct: purchased Eurofin/DiscoverX
Text: (§1) We reasoned that because internalizing AT1R and its targeting to intracellular compartments can support continued MAPK signaling, and since 21 inhibits receptor internalization, it should also impede to some extent ERK1/2 activation. […] Receptor-mediated ERK1/2 signaling can involve upstream kinases such as PKC, BRAF, and MEK1[35],[36]. […] To exclude other kinases potentially involved in ERK1/2 and Akt activation as targets of 21, we ran a kinase binding assay (KINOMEscan™) on 384 kinases from the human genome. Remarkably, a very high selectivity score S(10) of 0.008 was found (Supplementary Data 3).
(§2) The chemical library used for initial screening was from Chembridge DiverSet™ (60,000 compounds), Maybridge HitFinder™ (16,000 compounds), Maybridge (selected, 16,000 compounds), SPECS (selected, 16000 compounds), Microsource Discovery Spectrum (2000 compounds), Biomol (natural products, 500 compounds), Prestwick (commercialized products, 1120 compounds), SIGMA LopacTM (1280 compounds) and internal collection (synthesized at Université de Montréal-IRIC, ~4000 compounds). Compounds were all assigned an Université de Montréal number (UM) for internal use. Screen was performed at IRIC HTS facility. KINOMEscan™ profiling was serviced by Eurofin/DiscoverX (San Diego, USA).
(§3) Description of Additional Supplementary Files […]
(§4) File Name: Supplementary Data 3
(§5) Description: KINOMEscan results. Compound 21’s effect was tested on 384 kinases. Data represent kinases binding to their ligands in presence of 10 µM of 21, as compared to DMSO (100%). Results are from one experiment and represent the average of duplicates. Three kinases (FLT3, KIT, and PDGFRB) out of 384 were more than 90% affected (selectivity score S(10) of 0.008). […]

[2] = target: T3, 384 kinases from the human genome (Homo sapiens, UniProt O75914); test: KINOMEscan kinase binding assay; details: kinase PAK3 (Entrez PAK3)
T3 construct: purchased Eurofin/DiscoverX
Text: as §1, §2, §3, §4, §5

[3] = target: T4, 384 kinases from the human genome (Homo sapiens, UniProt P20794); test: KINOMEscan kinase binding assay; details: kinase MAK (Entrez MAK)
T4 construct: purchased Eurofin/DiscoverX
Text: as §1, §2, §3, §4, §5

[4] = target: T5, 384 kinases from the human genome (Homo sapiens, UniProt P51617); test: KINOMEscan kinase binding assay; details: kinase IRAK1 (Entrez IRAK1)
T5 construct: purchased Eurofin/DiscoverX
Text: as §1, §2, §3, §4, §5

[5] = target: T6, 384 kinases from the human genome (Homo sapiens, UniProt P78362); test: KINOMEscan kinase binding assay; details: kinase SRPK2 (Entrez SRPK2)
T6 construct: purchased Eurofin/DiscoverX
Text: as §1, §2, §3, §4, §5

[6] = target: T7, 384 kinases from the human genome (Homo sapiens, UniProt Q06187); test: KINOMEscan kinase binding assay; details: kinase BTK (Entrez BTK)
T7 construct: purchased Eurofin/DiscoverX
Text: as §1, §2, §3, §4, §5

[7] = target: T8, 384 kinases from the human genome (Homo sapiens, UniProt Q13164); test: KINOMEscan kinase binding assay; details: kinase ERK5 (Entrez MAPK7)
T8 construct: purchased Eurofin/DiscoverX
Text: as §1, §2, §3, §4, §5

[8] = target: T9, 384 kinases from the human genome (Homo sapiens, UniProt Q16659); test: KINOMEscan kinase binding assay; details: kinase ERK3 (Entrez MAPK6)
T9 construct: purchased Eurofin/DiscoverX
Text: as §1, §2, §3, §4, §5

[9] = target: T10, 384 kinases from the human genome (Homo sapiens, UniProt Q9C098); test: KINOMEscan kinase binding assay; details: kinase DCAMKL3 (Entrez DCLK3)
T10 construct: purchased Eurofin/DiscoverX
Text: as §1, §2, §3, §4, §5

[10] = target: T11, 384 kinases from the human genome (Homo sapiens, UniProt Q9UBE8); test: KINOMEscan kinase binding assay; details: kinase NLK (Entrez NLK)
T11 construct: purchased Eurofin/DiscoverX
Text: as §1, §2, §3, §4, §5

T1 sequence (P84077 whole entry): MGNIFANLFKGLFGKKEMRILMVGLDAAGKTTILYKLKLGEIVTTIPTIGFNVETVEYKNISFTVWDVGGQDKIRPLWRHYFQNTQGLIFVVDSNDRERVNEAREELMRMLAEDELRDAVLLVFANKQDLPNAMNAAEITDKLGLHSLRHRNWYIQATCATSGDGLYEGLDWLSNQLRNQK
T10 sequence (Q9C098 whole entry): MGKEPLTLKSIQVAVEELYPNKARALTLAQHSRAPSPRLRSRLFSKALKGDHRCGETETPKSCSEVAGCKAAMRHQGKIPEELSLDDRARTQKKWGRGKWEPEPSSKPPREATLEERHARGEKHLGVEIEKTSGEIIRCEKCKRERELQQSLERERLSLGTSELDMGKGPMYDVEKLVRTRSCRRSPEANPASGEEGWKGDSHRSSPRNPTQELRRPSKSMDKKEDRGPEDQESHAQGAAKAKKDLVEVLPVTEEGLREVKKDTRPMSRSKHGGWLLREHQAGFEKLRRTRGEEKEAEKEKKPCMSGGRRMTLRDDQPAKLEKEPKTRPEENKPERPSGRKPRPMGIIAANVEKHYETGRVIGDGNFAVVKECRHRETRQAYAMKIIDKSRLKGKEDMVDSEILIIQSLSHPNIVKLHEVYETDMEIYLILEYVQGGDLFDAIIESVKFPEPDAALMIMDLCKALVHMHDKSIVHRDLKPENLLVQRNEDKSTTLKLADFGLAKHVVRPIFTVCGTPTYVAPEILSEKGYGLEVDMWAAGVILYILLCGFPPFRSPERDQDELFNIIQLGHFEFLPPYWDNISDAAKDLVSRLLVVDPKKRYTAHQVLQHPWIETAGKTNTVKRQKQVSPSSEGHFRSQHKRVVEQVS
T4 sequence (P20794 whole entry): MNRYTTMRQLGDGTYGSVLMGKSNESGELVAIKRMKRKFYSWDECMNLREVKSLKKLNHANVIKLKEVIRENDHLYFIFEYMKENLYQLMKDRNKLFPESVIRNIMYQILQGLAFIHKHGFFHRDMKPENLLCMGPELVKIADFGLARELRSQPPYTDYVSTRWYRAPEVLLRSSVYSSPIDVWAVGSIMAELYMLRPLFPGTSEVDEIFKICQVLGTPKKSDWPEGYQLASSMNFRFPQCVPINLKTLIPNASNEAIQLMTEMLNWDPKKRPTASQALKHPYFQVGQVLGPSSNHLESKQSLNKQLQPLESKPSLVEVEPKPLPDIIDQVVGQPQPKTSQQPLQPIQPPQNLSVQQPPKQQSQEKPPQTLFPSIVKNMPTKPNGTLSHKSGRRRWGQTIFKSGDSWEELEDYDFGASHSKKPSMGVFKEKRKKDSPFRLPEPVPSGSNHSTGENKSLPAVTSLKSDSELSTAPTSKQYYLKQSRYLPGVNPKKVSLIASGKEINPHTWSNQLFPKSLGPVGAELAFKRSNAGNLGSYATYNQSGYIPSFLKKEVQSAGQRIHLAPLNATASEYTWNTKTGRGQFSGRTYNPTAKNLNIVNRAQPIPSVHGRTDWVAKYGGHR
T8 sequence (Q13164 whole entry): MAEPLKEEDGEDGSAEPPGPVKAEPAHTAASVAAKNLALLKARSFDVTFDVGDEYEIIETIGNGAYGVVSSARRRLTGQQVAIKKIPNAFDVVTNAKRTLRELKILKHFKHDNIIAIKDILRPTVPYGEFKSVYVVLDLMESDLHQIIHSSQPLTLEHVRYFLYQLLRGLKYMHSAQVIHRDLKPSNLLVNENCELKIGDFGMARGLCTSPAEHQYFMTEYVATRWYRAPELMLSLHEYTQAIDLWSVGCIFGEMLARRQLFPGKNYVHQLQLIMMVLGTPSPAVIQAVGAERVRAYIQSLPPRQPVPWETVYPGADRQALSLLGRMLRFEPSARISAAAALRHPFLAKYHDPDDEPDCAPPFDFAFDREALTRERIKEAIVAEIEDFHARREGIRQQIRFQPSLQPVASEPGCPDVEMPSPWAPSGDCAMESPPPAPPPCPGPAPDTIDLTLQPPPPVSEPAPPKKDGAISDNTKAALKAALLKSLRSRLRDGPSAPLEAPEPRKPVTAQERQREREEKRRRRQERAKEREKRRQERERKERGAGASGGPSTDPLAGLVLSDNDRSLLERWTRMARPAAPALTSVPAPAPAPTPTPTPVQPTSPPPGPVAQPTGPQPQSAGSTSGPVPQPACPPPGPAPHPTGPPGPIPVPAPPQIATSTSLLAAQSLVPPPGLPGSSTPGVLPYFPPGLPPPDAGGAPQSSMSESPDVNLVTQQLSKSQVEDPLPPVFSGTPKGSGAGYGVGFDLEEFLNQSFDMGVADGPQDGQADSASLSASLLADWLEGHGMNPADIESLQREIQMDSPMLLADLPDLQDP
T9 sequence (Q16659 whole entry): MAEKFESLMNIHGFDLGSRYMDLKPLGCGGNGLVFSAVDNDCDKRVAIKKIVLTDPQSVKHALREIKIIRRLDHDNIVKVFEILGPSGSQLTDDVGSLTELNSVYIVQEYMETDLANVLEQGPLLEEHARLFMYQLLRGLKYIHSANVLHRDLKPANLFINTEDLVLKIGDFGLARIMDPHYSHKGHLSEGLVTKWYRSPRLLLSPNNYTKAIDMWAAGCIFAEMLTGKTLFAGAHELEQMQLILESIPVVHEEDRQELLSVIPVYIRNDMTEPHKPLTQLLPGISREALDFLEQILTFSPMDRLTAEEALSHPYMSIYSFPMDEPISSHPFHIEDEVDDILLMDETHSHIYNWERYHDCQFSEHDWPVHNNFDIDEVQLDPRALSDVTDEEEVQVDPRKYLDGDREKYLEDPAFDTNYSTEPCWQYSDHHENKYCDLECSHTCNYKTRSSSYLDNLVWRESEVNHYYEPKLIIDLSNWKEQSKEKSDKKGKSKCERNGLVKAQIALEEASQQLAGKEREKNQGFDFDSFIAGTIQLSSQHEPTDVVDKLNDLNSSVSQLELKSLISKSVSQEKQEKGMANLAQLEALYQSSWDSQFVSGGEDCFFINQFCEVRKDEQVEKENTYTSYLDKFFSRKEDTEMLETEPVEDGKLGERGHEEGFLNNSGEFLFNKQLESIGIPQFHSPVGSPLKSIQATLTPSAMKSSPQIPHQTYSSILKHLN
T11 sequence (Q9UBE8 whole entry): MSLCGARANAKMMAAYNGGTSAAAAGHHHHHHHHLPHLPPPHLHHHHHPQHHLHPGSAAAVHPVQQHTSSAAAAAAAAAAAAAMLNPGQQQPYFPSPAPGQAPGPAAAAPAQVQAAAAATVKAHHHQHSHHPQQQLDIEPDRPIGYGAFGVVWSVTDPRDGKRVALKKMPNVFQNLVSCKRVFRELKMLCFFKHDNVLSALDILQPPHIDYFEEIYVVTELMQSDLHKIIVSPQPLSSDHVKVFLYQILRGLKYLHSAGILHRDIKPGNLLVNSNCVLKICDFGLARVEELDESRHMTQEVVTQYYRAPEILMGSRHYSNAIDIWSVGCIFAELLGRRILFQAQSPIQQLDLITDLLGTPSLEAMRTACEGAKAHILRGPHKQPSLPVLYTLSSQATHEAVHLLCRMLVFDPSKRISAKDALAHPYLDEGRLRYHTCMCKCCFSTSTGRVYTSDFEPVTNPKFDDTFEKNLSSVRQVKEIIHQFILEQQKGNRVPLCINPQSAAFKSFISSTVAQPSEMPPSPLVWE
T6 sequence (P78362 whole entry): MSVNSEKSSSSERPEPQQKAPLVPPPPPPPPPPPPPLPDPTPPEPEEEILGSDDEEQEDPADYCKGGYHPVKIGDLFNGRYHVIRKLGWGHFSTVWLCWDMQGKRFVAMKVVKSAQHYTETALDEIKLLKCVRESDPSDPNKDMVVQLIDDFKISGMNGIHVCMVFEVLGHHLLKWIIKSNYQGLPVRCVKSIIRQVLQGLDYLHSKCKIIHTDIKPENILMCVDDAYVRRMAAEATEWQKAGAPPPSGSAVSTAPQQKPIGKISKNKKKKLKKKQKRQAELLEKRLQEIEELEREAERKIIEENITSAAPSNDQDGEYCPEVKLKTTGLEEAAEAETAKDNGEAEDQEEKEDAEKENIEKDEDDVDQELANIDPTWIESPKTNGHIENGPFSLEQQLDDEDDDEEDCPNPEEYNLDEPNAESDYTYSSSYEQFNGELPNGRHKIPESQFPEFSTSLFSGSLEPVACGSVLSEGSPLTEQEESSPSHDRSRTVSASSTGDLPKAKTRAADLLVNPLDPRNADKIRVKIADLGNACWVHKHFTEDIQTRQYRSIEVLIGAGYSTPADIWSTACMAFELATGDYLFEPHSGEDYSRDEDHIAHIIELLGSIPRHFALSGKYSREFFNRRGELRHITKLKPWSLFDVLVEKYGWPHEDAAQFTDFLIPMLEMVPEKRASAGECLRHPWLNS
T7 sequence (Q06187 whole entry): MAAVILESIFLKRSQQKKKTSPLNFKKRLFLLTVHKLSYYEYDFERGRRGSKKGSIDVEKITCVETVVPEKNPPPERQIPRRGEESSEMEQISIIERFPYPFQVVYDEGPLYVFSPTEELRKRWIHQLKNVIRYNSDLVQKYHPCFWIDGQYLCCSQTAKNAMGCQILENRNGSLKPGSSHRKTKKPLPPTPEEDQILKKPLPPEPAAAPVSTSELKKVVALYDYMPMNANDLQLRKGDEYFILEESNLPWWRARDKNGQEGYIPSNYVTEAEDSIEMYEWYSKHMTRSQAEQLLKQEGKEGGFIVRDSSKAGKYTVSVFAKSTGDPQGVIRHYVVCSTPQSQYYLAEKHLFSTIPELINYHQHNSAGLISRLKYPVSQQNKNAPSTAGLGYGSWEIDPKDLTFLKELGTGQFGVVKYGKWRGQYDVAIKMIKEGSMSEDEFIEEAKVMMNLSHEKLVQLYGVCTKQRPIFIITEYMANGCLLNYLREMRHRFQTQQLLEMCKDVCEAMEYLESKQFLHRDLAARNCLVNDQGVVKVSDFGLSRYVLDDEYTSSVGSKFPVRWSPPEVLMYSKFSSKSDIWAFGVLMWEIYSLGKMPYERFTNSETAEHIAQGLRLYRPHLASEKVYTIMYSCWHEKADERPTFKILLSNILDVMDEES

CC(C)C(=O)N1CCN(c2ccc(NC(=O)c3cc4ccccc4o3)cc2Cl)CC1 [Compound 21]
AT1R localization by microscopy (AT1R): remained trapped at the PM
effect on AT1R-dependent ARF1 activation (ARF1; 50 μM): no effect
ARF1-GTP/ARF1 (ARF1; AngII): 0.143 and 0.2667 and 0.2223
ARF1-GTP/ARF1 (ARF1; Ctrl): 0.07407 and 0.04303 and 0.06878
Percent Control [1]: 96%
Percent Control [2]: 92%
Percent Control [3]: 84%
Percent Control [4]: 99%
Percent Control [5]: 80%
Percent Control [6]: 94%
Percent Control [7]: 99%
Percent Control [8]: 90%
Percent Control [9]: 97%
Percent Control [10]: 100%

Reference: PMC8333425, “Discovery of a dual Ras and ARF6 inhibitor from a GPCR endocytosis screen” (Nature Communications, 2021)
